Columns and labels:
[1] = system: HO-1 human melanoma cells; assay: SCLA reverse Northern hybridization of arrayed subtracted cDNA library with mRNAs from treated HO-1 cells; format: cell-based; settings: IFN-β 2000 units/ml, MEZ 10 ng/ml, staurosporine 500 ng/ml, temporally pooled mRNAs
Description: Staurosporine-treated HO-1 cells were harvested at 4, 8 and 24 hrs after treatment.
For reverse Northern analysis, RNA samples from each time point were pooled and 20 μg of pooled total RNA was reverse transcribed in two reactions into a ^32P-labeled first strand cDNA probe. After heating at 70° C. for 10 min and quenching on ice for two min, a mixture consisting of 10 pmole of T13V and 10 μg of the total RNA mixture in 50 mM Tris-HCl (pH 8.3), 75 mM KCl, 3 mM MgCl2, 10 mM DTT, 0.5 mM DATP, 0.5 mM dGTP, 0.5 mM dTTP, 0.02 mM dCTP, 5 U RNase inhibitor (Gibco BRL), 100 μCi dCTP (3000 Ci/mmole from Amersham) and 200 U Superscript RT II (Gibco BRL) was added (final 25 μl). The reaction mixture was incubated at 42° C. for one hr and at 37° C. for 30 min after addition of 2 μl of RNase H (10U, Gibco BRL). The membrane was hybridized at 42° C. overnight in a 50% formamide hybridization solution. The hybridized membrane was washed 2× at room temperature for 15 min with 2× SSC containing 0.1% SDS and then washed for at least one hr at 55° C. with 0.1× SSC containing 0.1% SDS. The membranes were exposed for different times to autoradiography.
After subtraction hybridization, a temporally spaced amplified subtracted (TSS) cDNA library (consisting of 4,979 plaques) was picked and plated individually (arrayed) in thirteen 384-well microtiter plates. […] This approach permitted the identification of cDNAs displaying altered expression as a function of the specific treatment protocol.

[2] = system: HO-1 human melanoma cells; settings: HO-1 cells, cited from earlier work
[3] = IFN-β 2000 units/ml, MEZ 10 ng/ml where printed

SMILES | clones induced only by the agent (uniquely positive after a single treatment protocol) [1] [clones] | effect on HO-1 cell growth [2, 3] | melanin synthesis / differentiation marker [2, 3] | morphological differentiation ([2]; MEZ 10 ng/ml) | positive clones (DMAC) identified after treatment, of 427 positive clones [1] [clones] | apoptosis [2]
C=C(C)[C@@]12O[C@@]3(c4ccccc4)O[C@@H]1[C@@H]1[C@@H]4O[C@]4(CO)[C@@H](O)[C@]4(O)C(=O)C(C)=C[C@H]4[C@@]1(O3)[C@H](C)[C@H]2OC(=O)/C=C/C=C/c1ccccc1 [MEZ, mezerein] | 12 | growth suppression | elevated melanin levels | exhibit morphological differentiation |  | 
CN[C@@H]1C[C@H]2O[C@@](C)([C@@H]1OC)n1c3ccccc3c3c4c(c5c6ccccc6n2c5c31)C(=O)NC4 [staurosporine] | 25 |  |  |  | 107 | induces apoptosis
